Assay results reported in article PMC10208276, “A Very Long-acting Exatecan and Its Synergism with DNA Damage Response Inhibitors” (Cancer Research Communications, 2023).
“Also recorded” adds a separate entry of the source. Like-named read-outs stand apart in the source and are kept apart here.

What was measured:
[1] = tested on: BRCA1-deficient MX-1 TNBC xenografts; assay: Antitumor activity of PEG-Exa in the MX-1 murine xenograft, alone and combined with TLZ or VX970; format: in vivo, female scid mice
Source text: Animals were housed at Murigenics.
To assess the interaction of the drug combination, we used an additivity index determined as TGcalc/TGobsd where […] and TGcalc is the product of TGobsd values of the individual drugs. Here, an index <1 indicates infra-additive, an index of 1 indicates additivity and an index >1 indicates a supra-additive or synergistic interaction.
We measured the effects of a combination of PEG-Exa with the PARPi TLZ and the ATRi VX970 on growth of MX-1 xenografts. […] To assess the interaction of a drug combination, we used an additivity index ([28]) determined as TGcalc/TGobsd where TGcalc is the product of TGobsd values of the individual drugs and TGobsd is the observed tumor growth in the presence of both drug. Here, an index <1 indicates infra-additive, an index of 1 indicates additivity and an index >1 indicates a supra-additive or synergistic interaction.

tumor cells = tested on: tumor cells; set-up: method as in PMID 12234607; details: cited from earlier work
[2] = tested on: BRCA1-deficient MX-1 TNBC xenografts; set-up: method as in PMID 9685056; details: total dose of 25 and 75 mg (57 and 170 μmol)/kg, four times at 4-day intervals, at 28 days; cited from earlier work
drug-efflux pumps = details: cited from earlier work
[3] = cited from earlier work
[4] = tested on: patient-derived triple-negative breast cancer (TNBC) xenografts; set-up: method as in PMID 32075943; details: cited from earlier work
[5] = tested on: relapsed small cell lung cancer; set-up: method as in PMID 33848478; details: combination of topotecan with the ATRi VX-970, 5-day interval of a 21-day cycle; cited from earlier work
[6] = VX970 64 μmol/kg PO, 4 consecutive days a week, alone
[7] = single intraperitoneal doses of 10 and 15 μmol/kg

## Cn1ncnc1[C@H]1c2n[nH]c(=O)c3cc(F)cc(c23)N[C@@H]1c1ccc(F)cc1 [TLZ, talazoparib]
[1]; 0.4 μmol (0.15 mg)/kg orally every day, Fig. 4A
  TGobsd: 0.71

## CNCc1ccc(-c2cc(-c3nc(-c4ccc(S(=O)(=O)C(C)C)cc4)cnc3N)on2)cc1 [VX970]
[1]; VX970 16 μmol/kg alone
  AUC of median MX-1 Tumor volume: 0.98 Fraction of vehicle control
[1]; VX970 32 μmol/kg alone
  AUC of median MX-1 Tumor volume: 0.96 Fraction of vehicle control
[1]; [6]
  TGI: 0
  TGobsd, AUC of median MX-1 Tumor volume: 1.04 Fraction of vehicle control
[1]; VX970 alone, 64 μmol/kg for 4 consecutive days a week
  effect on growth of MX-1 xenografts: do not affect tumor growth; also recorded: no effect

## CC[C@@]1(O)C(=O)OCc2c1cc1n(c2=O)Cc2c-1nc1cc(F)c(C)c3c1c2[C@@H](N)CC3 [Exa, exatecan]
Tumor cells
  increase of inhibitory potency upon prolonged exposure: about 80 fold
[2]
  effect on MX-1 TNBC xenografts: regression
drug-efflux pumps
  substrate for drug-efflux pumps: does not appear to be a substrate
[3]; in humans
  t1/2: approximately 10 hours

## CCc1c2c(nc3ccc(O)cc13)-c1cc3c(c(=O)n1C2)COC(=O)[C@]3(O)CC [SN-38]
[3]; SN-38 formed from CPT-11
  apparent t1/2: approximately 12 hours

## CCc1c2c(nc3ccc(OC(=O)N4CCC(N5CCCCC5)CC4)cc13)-c1cc3c(c(=O)n1C2)COC(=O)[C@]3(O)CC [irinotecan]
[4]; xenografts containing both biomarkers
  responsive xenografts: 100%
[4]; xenografts with BRCAness
  response rate: 50%
[4]; xenografts with high SLFN11
  response rate: 75%

## CC[C@@]1(O)C(=O)OCc2c1cc1n(c2=O)Cc2cc3c(CN(C)C)c(O)ccc3nc2-1 [topotecan]
[5]
  ORR: 36%

## PEG40kDa-[exatecan]4 (Mod = 4-Cl-C6H4-SO2-) [3A]
[1]; […] PEG-Exa nearly identical to 15 μmol/kg PLX038A
  potency in growth suppression relative to PLX038A (PEG-SN-38): approximately 6 fold
[1]; single 10 μmol/kg versus total 57 μmol/kg free Exa (ref 26)
  dose lower than dose of free Exa required to suppress MX-1 xenografts: 6 fold
[1]; single 10 μmol/kg versus total 170 μmol/kg free Exa (ref 26)
  dose lower than dose of free Exa required to suppress MX-1 xenografts: 18 fold
[1]; single dose of 10 μmol/kg
  duration of tumor growth suppression: over 40 days
  tumor growth of MX-1 xenografts: complete suppression of tumor growth
[1]; [7]
  duration of complete growth inhibition: > 48 days
  growth of tumors: complete growth inhibition
